Results from patent publication US20070197625A1, “Azabicyclic compounds, a process for their preparation and pharmaceutical compositions containing them” (Les Laboratoraties Servier, priority 2004, published 2007).

Biological target: T1, type H3 central histaminergic receptors (Mus musculus, UniProt P58406)
T1 construct: from tissue; host or cells: brain of living NMRI mice
Assay: Cerebral doses of N^t-methylhistamine in the NMRI mouse (ex vivo, after oral administration)
Details: NMRI mice, brain two hours after treatment, vs carrier control
Description: The aim of this study, carried out according to the method of Taylor et al. (Biochem. Pharm., 1992, 44, 1261-1267), is to evaluate the ex vivo activity of the compounds of the present invention as type H3 central histaminergic receptor antagonists. […] An increase in the cerebral concentrations of N^t-methylhistamine signifies an increase in histamine turnover by blockade of the type H3 central histaminergic receptors.
NMRI mice (18-20 g) are treated via oral administration with the compounds of the present invention or with their carrier (20 ml/kg). Two hours after the pharmacological treatment, the animals are sacrificed, the brains are removed, frozen in liquid nitrogen, weighed and homogenised in 0.1N HClO4 at 4° C. The homogenates are centrifuged (15000 g, 17 min, 4° C.). The supernatants are recovered and divided into aliquots. The aliquots are frozen in liquid nitrogen and stored at −80° C. until their analysis.
Determination of the cerebral levels of N^t-methylhistamine is effected by capillary electrophoresis coupled with detection by laser-induced fluorescence (J. Chromatogr. A., 1996, 755, 99-115). The tissue levels of N^t-methylhistamine are expressed in ng/g of fresh brain. Comparison between the cerebral levels of N^t-methylhistamine of the animals treated with the carrier (control) and the animals treated with the compounds of the present invention (n=5/group) is effected by single factor variance analysis followed, if necessary, by a supplementary analysis (Dunnett's test).

T1 sequence (P58406 whole entry): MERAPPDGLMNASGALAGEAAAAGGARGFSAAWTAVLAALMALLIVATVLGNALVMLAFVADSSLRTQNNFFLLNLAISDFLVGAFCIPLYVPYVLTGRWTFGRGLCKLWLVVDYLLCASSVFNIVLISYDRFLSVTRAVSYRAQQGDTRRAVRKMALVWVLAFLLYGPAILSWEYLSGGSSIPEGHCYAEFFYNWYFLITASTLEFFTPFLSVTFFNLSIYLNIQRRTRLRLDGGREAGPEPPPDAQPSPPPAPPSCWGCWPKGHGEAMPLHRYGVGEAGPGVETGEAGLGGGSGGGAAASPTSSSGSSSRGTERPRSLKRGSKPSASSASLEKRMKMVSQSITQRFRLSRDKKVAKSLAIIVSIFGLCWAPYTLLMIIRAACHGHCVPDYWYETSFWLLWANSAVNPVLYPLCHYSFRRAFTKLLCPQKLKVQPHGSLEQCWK

SMILES | increase of the endogenous cerebral concentrations of N^t-methylhistamine (10 mg/kg p.o.) [%] | increase of the endogenous cerebral concentrations of N^t-methylhistamine (3 mg/kg p.o.) [%]
N#Cc1ccc(OCCCN2CC3CCCC3C2)cc1.O=C(O)C(=O)O (centres unmarked) [Example 1, 4-(3-Hexahydrocyclopenta[c]pyrrol-2(1H)-ylpropoxy)benzonitrile oxalate] | 92 | 
CC(=O)Nc1ccc(OCCCN2CC3CCCC3C2)cc1.O=C(O)C(=O)O (centres unmarked) [Example 4, N-[4-(3-Hexahydrocyclopenta[c]pyrrol-2(1H)-ylpropoxy)-phenyl]acetamide oxalate] |  | 52
CNC(=O)c1ccc(OCCCN2CC3CCCC3C2)cc1 (centres unmarked) [Example 93, 4-[3-(Hexahydrocyclopenta[c]pyrrol-2(1H)-yl)propoxy]-N-methylbenzamide] |  | 90
NC(=O)c1ccc(OCCCN2CC3CCCC3C2)cc1.O=C(O)C(=O)O (centres unmarked) [Example 22, 4-(3-Hexahydrocyclopenta[c]pyrrol-2(1H)-ylpropoxy)benzamide oxalate] | 85 | 33
